According to the supplement of paper PMC10949913:
“And” between values parts separate entries of the source, which are not always exact repeats. Equal values may be shown once.

Columns and labels:
Conditions in all cases: 48 h
CU-ACC1 [1] = test: area under concentration-response curve (viability) (AUC (a.u.)); higher = less active
Procedure, shortened: (§1)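 Luminescence from CellTiter-Glo, read after 48 h, measured three adrenocortical carcinoma cell lines treated in 1,536-well plates with library compounds at 11 concentrations. Values were normalised per plate to vehicle and empty-well controls. The AC50 and area under the curve come from fitted concentration-response curves in inhibitory or non-responding classes only.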

CU-ACC2 [2] = test: as above
Procedure, shortened: as §1

CU-ACC1 [3] = test: AC50 viability; higher = less potent
Procedure, shortened: as §1

CU-ACC2 [4] = test: AC50 viability; higher = less potent
Procedure, shortened: as §1

NCI-H295R [5] = test: area under concentration-response curve (viability) (AUC (a.u.)); higher = less active
Procedure, shortened: as §1

NCI-H295R [6] = test: AC50 viability; higher = less potent
Procedure, shortened: as §1

| Compound | area under concentration-response curve (CU-ACC1 [1]) | area under concentration-response curve (CU-ACC2 [2]) | AC50 viability (CU-ACC1 [3]) [µM] | AC50 viability (CU-ACC2 [4]) [µM] | area under concentration-response curve (NCI-H295R [5]) | AC50 viability (NCI-H295R [6]) [µM] |
| --- | --- | --- | --- | --- | --- | --- |
| O=C(CCCCCCC(=O)Nc1ccccc1)NO | 415 | 474 | 2.95 | 3.32 |  |  |
| CN1\N=C(N)/C2=C[N]([C@@H]3O[C@H](CO[P](O)(O)=O)[C@@H](O)[C@H]3O)C4=C2C1=NC=N4 | 429 | 464 | 11.8 | 4.68 | 493 |  |
| Cc1c(NC(=O)c2cc(C(N)=O)nc3cc(F)ccc23)c(C(F)(F)F)nn1Cc1ccc(C#N)cc1 | 460 | 443 | 1.66 | 10.5 | 462 |  |
| CN1C(=O)/C(=C(NC2=CC=C(I)C=C2F)\C3=C1\N=C/N(C[C@@H](O)CO)C3=O)F | 431 | 497 | 8.33 | 11.8 | 534 |  |
| CN(C)C1CCN(C(=O)c2ccc(NC(=O)Nc3nc(N4CCOCC4)nc(N4CCOCC4)n3)cc2)CC1 | 393 | 458 | 3.32 | 1.86 | 464 |  |
| O=C(c1ccc(Nc2nc(C3CC3)cn3c(-c4cn[nH]c4)cnc23)c(F)c1)N1CCOCC1 | 366 | 343 | 3.32 | 14.8 |  |  |
| CN1C(=O)C(=C/2N(C(=O)N(C3CC3)C(=O)C2=C1/NC4=CC=C(I)C=C4F)C5=CC=CC(=C5)NC(C)=O)\C | 305 | 372 | 0.742 | 0.0661 | 408 |  |
| C[C@@H]\1CC(=O)N\N=C1C2=CC=C(NN=C(C#N)C#N)C=C2 | 375 | 425 | 11.8 | 16.6 | 363 |  |
| CC(=O)Nc1ccc(C(=O)NC(C)(C)C)cc1 | 331 | 247 | 5.25 | 0.295 | 284 |  |
| CCCNC(=O)[C@H]1O[C@@H]1C(=O)N[C@H](C(=O)N1CCC[C@H]1C(=O)OC)C(C)CC (some centres undefined) | 449 | 504 | 16.6 | 18.6 | 494 |  |
| Oc1cc(-c2nc(-c3ccccc3)[nH]c2-c2ccncc2)ccc1Cl | 464 | 514 | 20.9 | 16.6 | 522 |  |
| NCCCCNCCCN | 312 | 422 | 16.6 | 33.2 | 107 |  |
| CC(C)(C)C[C@H]1N[C@@H](C(=O)N[C@H]2CC[C@H](O)CC2)[C@H](c2cccc(Cl)c2F)[C@@]12C(=O)Nc1cc(Cl)ccc12 | 473 | 461 | 1.48 | 23.5 |  |  |
| CC(C)Nc1cc(-c2c[nH]c(C(=O)N[C@H](CO)c3cccc(Cl)c3)c2)c(Cl)cn1 | 467 | 545 | 23.5 | 18.6 |  |  |
| CCC[C@H](NC(=O)/C(C#N)=C/c1cccc(Br)n1)c1ccccc1 | 468 | 565 | 26.3 | 26.3 |  |  |
| c1cc(N[C@@H]2CCNC2)nc(-c2cnc3ccc(-c4cn[nH]c4)cn23)c1 | 331 | 380 | 0.00662 | 41.7 | 409 |  |
| CC1=C(/C=C/C(C)=C/C=C/C(C)=C/C(=O)Nc2ccc(O)cc2)C(C)(C)CCC1 | 232 | 170 | 0.235 | 0.295 | 179 |  |
| CCCNCC(O)COc1ccccc1C(=O)CCc1ccccc1 (centres undefined) | 417 | 451 | 23.5 | 23.5 |  |  |
| C[S+]([O-])c1ccc(-c2nc(-c3ccc(F)cc3)c(-c3ccncc3)[nH]2)cc1 (centres undefined) | 393 | 420 | 18.6 | 16.6 |  |  |
| COc1cc2c(cc1OC(C)C)[C@H](c1ccc(Cl)cc1)N(c1ccc(N(C)C[C@H]3CC[C@H](N4CCN(C)C(=O)C4)CC3)cc1)C(=O)C2 | 427 | 510 | 16.6 | 20.9 |  |  |

| Compound | area under concentration-response curve (CU-ACC1 [1]) | area under concentration-response curve (CU-ACC2 [2]) | AC50 viability (CU-ACC1 [3]) [µM] | AC50 viability (CU-ACC2 [4]) [µM] | area under concentration-response curve (NCI-H295R [5]) | AC50 viability (NCI-H295R [6]) [µM] |
| --- | --- | --- | --- | --- | --- | --- |
| COC1=CC(c2cc3ccccc3[nH]2)=N/C1=C/c1[nH]c(C)cc1C | 410 | 495 | 37.2 | 33.2 |  |  |
| CCC(=C/[C@H](C)C/C=C/C(C)=C/[C@@H](C)C(=O)[C@@H](C)[C@H](O)[C@@H](C)C/C(C)=C/C(=O)O)/C=C/[C@@H]1OC(=O)C=C[C@@H]1C | 230 | 344 | 0.00105 | 13.2 | 333 |  |
| COC1=CC=C(C=C1)C/2=C/OC3=C(C(=CC(=C3)O)O)C2=O | 267 | 164 | 0.0661 | 0.295 | 208 |  |
| CN[C@@H]1CN(C[C@H]1OC)C2=NC3=C(C=C2)C(=O)C(=C\N3C4=NC=CS4)/C(O)=O | 475 | 474 | 10.2 | 4.56 | 445 |  |
| C=C1/C(=C\C=C2/CCC[C@]3(C)[C@@H]([C@H](C)CCCC(C)(C)O)CC[C@@H]23)C[C@@H](O)C[C@@H]1O | 408 and 314 | 329 and 416 | 16.6 | 14.8 | 364 |  |
| C/C=C/C/C=C/CCC(=O)[C@H]1O[C@H]1C(N)=O | 474 | 554 | 20.9 | 23.5 |  |  |
| Cc1cc2c(C(C)C)c(O)c(O)c(C=O)c2c(O)c1-c1c(C)cc2c(C(C)C)c(O)c(O)c(C=O)c2c1O | 529 | 596 | 26.3 | 23.5 |  |  |
| COc1ccc(CNc2nc(N(CCO)CCO)nc3c2ncn3C(C)C)cc1 | 438 | 502 | 14.8 | 7.42 |  |  |
| CN[C@@H](C)C(=O)N[C@H]1CCCC[C@H]2CC[C@@H](C(=O)N[C@@H](c3ccccc3)c3cn(CCCCc4ccc(CCCCn5cc([C@@H](NC(=O)[C@@H]6CC[C@@H]7CCCC[C@H](NC(=O)[C@H](C)NC)C(=O)N76)c6ccccc6)nn5)cc4)nn3)N2C1=O | 260 | 303 | 0.166 | 0.332 |  |  |
| O=C(N[C@@H](c1ccccc1)[C@@H]1CCCCN1)c1cccc(C(F)(F)F)c1Cl | 371 | 454 | 10.5 | 33.2 | 212 |  |
| Cc1c[nH]c2ncnc(N3CCC(CN)(C(=O)Nc4cccc(OC(=O)N(C)C)c4)CC3)c12 | 427 and 309 | 512 | 10.5 | 18.6 | 518 and 295 |  |
| COc1cc2c(N3CCN(C(=O)Nc4ccc(OC(C)C)cc4)CC3)ncnc2cc1OCCCN1CCCCC1 | 401 | 457 | 16.6 | 7.42 |  |  |
| COC1=CC=C2Nc3cc(Cl)ccc3C(N=C3C=C(CN4CCCC4)C(=O)C(CN4CCCC4)=C3)=C2N1 | 477 | 528 | 18.6 | 23.5 |  |  |
| C[C@]12Cc3cn[nH]c3C[C@@H]1CC[C@@H]1[C@@H]2CC[C@@]2(C)[C@H]1CC[C@]2(C)O | 335 | 214 | 0.0132 | 0.263 | 312 |  |
| CC[C@@]1(O)C(=O)OCc2c1cc1n(c2=O)Cc2cc3c(CN(C)C)c(O)ccc3nc2-1.Cl | 428 | 483 | 16.6 | 16.6 | 488 |  |
| CN\1C(=O)/C(=C(\N=C1NC[C@@H](N)CC2=CC=CC=C2)C3=CC=NC=C3)C4=CC5=C(C=CC=C5)C=C4 | 484 | 571 | 29.5 | 37.2 |  |  |
| C[C@@H](O)[C@@H](C)Oc1nc(Nc2ccc([S+](=N)([O-])C3CC3)cc2)ncc1C(F)(F)F (some centres undefined) | 476 | 567 | 23.5 | 26.3 |  |  |
| O=C1[C@H](Cc2ccc(O)cc2)N2C(=O)CCN(C(=O)NCc3ccccc3)[C@H]2CN1Cc1cccc2ccccc12 | 531 | 554 | 11.8 | 4.68 | 496 |  |
| COc1cc(F)c(F)c(Nc2ccc(I)cc2F)c1N[S+](=O)([O-])C1(C[C@H](O)CO)CC1 | 421 | 476 | 16.6 | 6.61 |  |  |
| CC[C@@]1(O)C(=O)OCC/2=C1/C=C3\N(CC4=CC5=CC(=CC=C5N=C34)O)C2=O | 271 | 436 | 2.09 | 0.742 | 518 |  |

| Compound | area under concentration-response curve (CU-ACC1 [1]) | area under concentration-response curve (CU-ACC2 [2]) | AC50 viability (CU-ACC1 [3]) [µM] | AC50 viability (CU-ACC2 [4]) [µM] | area under concentration-response curve (NCI-H295R [5]) | AC50 viability (NCI-H295R [6]) [µM] |
| --- | --- | --- | --- | --- | --- | --- |
| CC(O)c1cc(C(=O)N[C@@H](C)Cn2ccc(-c3ccc(C#N)c(Cl)c3)n2)n[nH]1 (some centres undefined) | 454 | 488 | 33.2 | 20.9 |  |  |
| CC(C)(C)C(=O)OCOP(=O)(COCCn1cnc2c(N)ncnc21)OCOC(=O)C(C)(C)C | 456 | 527 | 8.33 | 7.42 |  |  |
| O=C(CCCCCCC(=O)Nc1ccc([C@H]2O[C@@H](CSc3nc(-c4ccccc4)c(-c4ccccc4)o3)C[C@@H](c3ccc(CO)cc3)O2)cc1)NO | 488 | 573 | 2.7 | 3.4 | 492 |  |
| COc1ncc(Nc2ncc(C(C)N3CCN([S+](C)(=O)[O-])CC3)cc2-c2nc(C)nc(N)n2)cc1F (centres undefined) | 226 | 258 | 0.00263 | 0.0934 | 179 |  |
| O=C(NOCC1CC1)c1ccc(F)c(F)c1Nc1ccc(I)cc1Cl | 485 | 527 | 13.2 | 16.6 |  |  |
| CN(C)C1CCN(C(=O)c2ccc(NC(=O)Nc3ccc(-c4nc(N5CCOCC5)nc(N5CCOCC5)n4)cc3)cc2)CC1 | 411 | 345 | 2.35 | 4.17 | 485 |  |
| Cn1c(CCCCCCC(=O)NO)nc2cc(N(CCCl)CCCl)ccc21 | 439 | 479 | 10.5 | 5.9 | 497 |  |
| O=C(CC12CC3CC(CC(C3)C1)C2)Nc1cccc2nc(NCCNCCO)ccc12 | 473 | 537 | 26.3 | 23.5 |  |  |
| C[C@H]1[C@H](OC(=O)CCC(=O)O)O[C@@H]2O[C@@]3(C)CC[C@H]4[C@H](C)CC[C@@H]1[C@@]24OO3 | 354 | 585 |  | 20.9 | 522 | 20.9 |
| O=C(Nc1cc(Oc2cc(F)c(NC(=O)C3(C(=O)Nc4ccc(F)cc4)CC3)cc2F)ccn1)C1CC1 | 445 | 504 |  | 8.33 | 482 | 10.5 |
| Cc1ccc(C(=O)Nc2ccc(CN3CCN(C)CC3)c(C(F)(F)F)c2)cc1C#Cc1cnc2[nH]ncc2c1 | 441 | 427 |  | 8.33 | 392 | 8.33 |
| CC(C)(O)CC[C@@H](O)[C@](C)(O)[C@H]1CC[C@@]2(O)C/3=C/C(=O)[C@@H]4C[C@@H](O)[C@@H](O)C[C@]4(C)[C@H]3CC[C@]12C | 192 | 233 | 0.132 | 0.372 |  |  |
| COc1cc2ncn(-c3cc(OCc4ccccc4[S+](C)(=O)[O-])c(C#N)s3)c2cc1OC | 351 | 399 |  | 33.2 | 376 | 37.2 |
| CC[P](CC)(CC)=[Au][S][C@@H]1O[C@H](COC(C)=O)[C@@H](OC(C)=O)[C@H](OC(C)=O)[C@H]1OC(C)=O | 439 | 445 |  | 1.86 | 400 | 2.09 |
| COc1cccc([C@@H](C)NCCCc2ccccc2Cl)c1 | 462 | 584 | 20.9 | 23.5 |  |  |
| Cc1cc(Nc2nc(N[C@@H](C)c3ccc(F)cc3)c(C#N)cc2F)n[nH]1 | 516 | 467 | 18.6 | 20.9 |  |  |
| C=C1C(=O)[C@@]23C(CC[C@@H]1[C@H]2O)[C@@]12CO[C@]3(O)[C@@H](O)[C@@H]1C(C)(C)CC[C@@H]2O (some centres undefined) | 486 | 551 |  | 11.8 | 529 | 18.6 |
| C=CC(=O)Nc1cccc(Oc2nc(Nc3ccc(N4CCN(C)CC4)c(F)c3)nc3[nH]ccc23)c1 | 504 | 557 |  | 18.6 | 492 | 20.9 |
| Oc1ccc2ccccc2c1SSc1c(O)ccc2ccccc12 | 487 | 583 | 41.7 | 23.5 |  |  |
